# Experimental data as given in patent US4001218A, “Penicillins” (Bayer Aktiengesellschaft, priority 1972, dated 1977).
# Legend:
# [1] = system: E. coli 183/58; assay: MIC, test tube series dilution test, E. coli 183/58; format: cell-based; settings: 24 hours, 37°C
# [2] = system: Proteus morg. 932; assay: MIC, test tube series dilution test, Proteus morg. 932; format: cell-based; settings: 24 hours, 37°C
# [3] = system: E. coli A 261; assay: MIC, test tube series dilution test, E. coli A 261; format: cell-based; settings: 24 hours, 37°C
# [4] = system: E. coli C 165; assay: MIC, test tube series dilution test, E. coli C 165; format: cell-based; settings: 24 hours, 37°C
# [5] = system: Staph. aureus 1756; assay: MIC, test tube series dilution test, Staph. aureus 1756; format: cell-based, Staphylococcus aureus; settings: Staph. aureus 1756; 24 hours, 37°C
# [6] = system: Klebsiella 63; assay: MIC, test tube series dilution test, Klebsiella 63; format: cell-based; settings: Klebsiella 63; 24 hours, 37°C
# [7] = system: Klebsiella K 10; assay: MIC, test tube series dilution test, Klebsiella K 10; format: cell-based; settings: 24 hours, 37°C
# [8] = system: Enterococcus 9790; assay: MIC, test tube series dilution test, Enterococcus 9790; format: cell-based; settings: 24 hours, 37°C
# [9] = system: Staph. aureus 133; format: cell-based, Staphylococcus aureus; settings: Staph. aureus 133; 24 hours, 37°C
# [10] = system: Psdm. aerug. F 41; assay: MIC, test tube series dilution test, Psdm. aerug. F 41; format: cell-based, Pseudomonas aeruginosa; settings: Psdm. aerug. F 41; 24 hours, 37°C
# [11] = system: Proteus vulg. 1017; format: cell-based, Proteus vulgaris; settings: Proteus 1017; 24 hours, 37°C
# [12] = system: E. coli 14; format: cell-based; settings: E. coli 14; 24 hours, 37°C
# [13] = system: Psdm. aerug. Walter; assay: MIC, test tube series dilution test, Psdm. aerug. Walter; format: cell-based, Pseudomonas aeruginosa; settings: Psdm. aerug. Walter; 24 hours, 37°C
SMILES,MIC [1],MIC [2],MIC [3],MIC [4],MIC [5],MIC [6],MIC [7],MIC [8],MIC [9],MIC [10],MIC [11],MIC [12],MIC [13]
"CC1(C)S[C@@H]2[C@H](NC(=O)[C@H](NC(=O)c3ccc(NC(N)=O)cc3)c3ccccc3)C(=O)N2[C@H]1C(=O)O [Example 30, sodium D(-)-α-(4-carbamoylaminobenzoylamino)-benzylpenicillin]",256 U/ml,> 256 U/ml,> 256 U/ml,32 U/ml,64 U/ml,256 U/ml,> 256 U/ml,8 U/ml,< 1 U/ml,128 U/ml,> 256 U/ml,~ 32 U/ml,> 256 U/ml
CC1(C)S[C@@H]2[C@H](NC(=O)[C@H](NC(=O)c3ccc(NC(=O)C=Cc4ccccc4)cc3)c3ccccc3)C(=O)N2[C@H]1C(=O)O [Example 35],< 1 U/ml,128 U/ml,> 256 U/ml,4 U/ml,8 U/ml,8 U/ml,16 U/ml,~ 4 U/ml,< 1 U/ml,4 U/ml,~ 1 U/ml,< 1 U/ml,4 U/ml
CC(N=[N+]=[N-])C(=O)Nc1ccc(C(=O)N[C@@H](C(=O)N[C@@H]2C(=O)N3[C@@H]2SC(C)(C)[C@@H]3C(=O)O)c2ccccc2)cc1 (stereo partly drawn) [Example 37],16 U/ml,~ 128 U/ml,> 256 U/ml,8 U/ml,64 U/ml,32 U/ml,64 U/ml,16 U/ml,< 1 U/ml,~ 32 U/ml,128 U/ml,4 U/ml,32 U/ml
CC1(C)S[C@@H]2[C@H](NC(=O)[C@H](NC(=O)c3ccc(NC(=O)CCN=[N+]=[N-])cc3)c3ccccc3)C(=O)N2[C@H]1C(=O)O [Example 38],16 U/ml,~ 256 U/ml,> 256 U/ml,16 U/ml,32 U/ml,64 U/ml,128 U/ml,~ 16 U/ml,< 1 U/ml,32 U/ml,32 U/ml,4 U/ml,32 U/ml
CC1(C)S[C@@H]2[C@H](NC(=O)[C@H](NC(=O)c3ccc(NC(=O)Nc4ccccc4)cc3)c3ccccc3)C(=O)N2[C@H]1C(=O)O [Example 45],4 U/ml,128 U/ml,> 256 U/ml,8 U/ml,16 U/ml,16 U/ml,32 U/ml,< 1 U/ml,< 1 U/ml,8 U/ml,16 U/ml,< 1 U/ml,16 U/ml
CC1(C)S[C@@H]2[C@H](NC(=O)[C@H](NC(=O)CNC(=O)c3ccc(NC(=O)C4CCCC4)cc3)c3ccccc3)C(=O)N2[C@H]1C(=O)O [Example 66],64 U/ml,> 256 U/ml,> 256 U/ml,32 U/ml,32 U/ml,32 U/ml,64 U/ml,32 U/ml,< 1 U/ml,64 U/ml,32 U/ml,8 U/ml,128 U/ml
